Data published in the OligoGym collection.
After the bases stand the sugars from the 5' end (letter, count) and the backbone: PS all phosphorothioate, else s phosphorothioate and o phosphodiester by linkage. Methylation of C is not given here. e = 2'-O-(2-methoxyethyl) (MOE); k = constrained ethyl (cEt); d = 2'-deoxy (DNA)

Biological target: APOL1
Settings: ASO

Sequence | target mRNA inhibition (A431, 2 µM) [%] | target mRNA inhibition (A431, 0.0156 µM) [%] | target mRNA inhibition (A431, 0.0625 µM) [%] | target mRNA inhibition (A431, 0.25 µM) [%] | target mRNA inhibition (A431, 1 µM) [%]
TGTTCTAACTCTTGGG (sugars k3 d4 k3 e1 d5, PS) | 89 |  |  |  | 
TGTTCTAACTCTTGGG (sugars kkkddddkekeddddd, PS) | 88 |  |  |  | 
TTATACCAGTGTCTTC (sugars kddddkekekeddddd, PS) | 82 |  |  |  | 
TTATATTTGATCCTCA (sugars k2 d4 e4 k2 d4, PS) | 91 | 0 | 30 | 61 | 87
TTATATTTGATCCTCA (sugars kdddddkekekddddd, PS) | 82 |  |  |  | 
TTATATTTGATCCTCA (sugars kkdddddkekeddddd, PS) | 96 | 7 | 38 | 74 | 92
TTATATTTGATCCTCA (sugars kkkddddkekekdddd, PS) | 92 |  |  |  | 
TTATGAAATTATTGGT (sugars kkddddekekeddddd, PS) | 74 |  |  |  | 
TTATGAAATTATTGGT (sugars kkddddkekekddddd, PS) | 82 |  |  |  | 
TTATGAAATTATTGGT (sugars kkddddkekekkdddd, PS) | 63 |  |  |  | 
TTATGAAATTATTGGT (sugars kkkddddkekekdddd, PS) | 86 |  |  |  | 
TTATGGAATTGCAGAT (sugars k4 d9 k3, PS) |  |  | 38 | 67 | 86
TTATTCTCATGGTACA (sugars kkkddddkekekdddd, PS) | 53 |  |  |  | 
TTCTATTAGAGGGCTA (sugars k2 d4 e3 k2 d5, PS) | 87 |  |  |  | 
TTCTATTAGAGGGCTA (sugars k3 d4 k3 e1 d5, PS) | 85 |  |  |  | 
TTCTATTAGAGGGCTA (sugars kekddddeekkddddd, PS) | 94 |  |  |  | 
TTCTATTAGAGGGCTA (sugars kkdddddkekeddddd, PS) | 94 | 26 | 56 | 81 | 92
TTCTATTAGAGGGCTA (sugars kkkddddkdkdkdddd, PS) | 78 |  |  |  | 
TTCTATTAGAGGGCTA (sugars kkkddddkekeddddd, PS) | 91 |  |  |  | 
TTCTCATGGTACAGGA (sugars k2 d4 e3 k2 d5, PS) | 86 |  |  |  | 
TTCTCATGGTACAGGA (sugars k2 d4 e4 k2 d4, PS) | 80 |  |  |  | 
TTCTCATGGTACAGGA (sugars kkddddkdkdkddddd, PS) | 89 |  |  |  | 
TTCTTGATGTGGTGGG (sugars k4 d9 k3, PS) |  |  | 58 | 82 | 91
TTGGTTCAAAAGCAGC (sugars k4 d9 k3, PS) |  |  | 72 | 87 | 92
TTGTAAGTGCAACCAA (sugars kkddddkdkdkddddd, PS) | 74 |  |  |  | 
TTGTAAGTGCAACCAA (sugars kkddddkekekddddd, PS) | 69 |  |  |  | 
TTGTCTTGCAAGGTTG (sugars k4 d9 k3, PS) |  |  | 55 | 69 | 85
TTTAAACTCAGGTGAC (sugars kkddddkekekkdddd, PS) | 16 |  |  |  | 
TTTTGTTGCACCCTTG (sugars k4 d9 k3, PS) |  |  | 76 | 87 | 92
